Data on 3 compounds can be found in patent publication US20090197970A1, “CRYSTALLINE FORM OF CINACALCET” (Sandoz AG, priority 2006, published 2009).

What all share (assay type): physicochemical
Data set [1] can be described thus: Flowability and handling of the crystals. The following applies: crystals in the form of plates.
A short description of data set [2]: Storage stability of the crystalline form. The following applies: stored at ambient temperature.
Data set [3] in a line: Temperature range of stability of the polymorph (DSC discussion). The following applies: form only stable above this temperature. The procedure:
DSC curves were recorded with a DSC 7 system (Perkin Elmer, Norwalk, Conn., USA) using the Pyris 2.0. software. Samples of approximately 2 mg were weighted into A1 pans with perforated cover. Dry nitrogen was used as purge gas. X-axis is the temperature in ° C., Y-axis gives dH/dT (endo up).
Form I is a crystalline form which melts at about 180° C. and is only stable at temperatures above 130° C.

Regarding `C[C@@H](NCCCc1cccc(C(F)(F)F)c1)c1cccc2ccccc12.Cl`, the flowability characteristics result in data set [1] is “favourable flowability characteristics”.

`C[C@@H](NCCCc1cccc(C(F)(F)F)c1)c1cccc2ccccc12.Cl` [Form III of Cinacalcet hydrochloride]: the stable when stored in data set [2] is at least 3 months.

Regarding `C[C@@H](NCCCc1cccc(C(F)(F)F)c1)c1cccc2ccccc12.Cl` [Form I], in data set [3], the “temperature at which the form is stable” value was “above 130 °C”.
